Consider 22 compounds from patent US11840528B2 (Hoffmann-La Roche Inc., priority 2018, dated 2023).

As usually defined, the Ki is the equilibrium dissociation constant of an inhibitor or competing ligand from its target. Low values mean a stronger hold on the target, high ones a looser hold on the target.

Experiment [1] has as its target T1, h-GABA-A α5β3γ2 (Homo sapiens, UniProt P18507+P31644). Nature of the experiment: [3H]flumazenil competition binding assay, membranes of HEK293 cells expressing GABAA receptors. The following applies: displacement of [3H]-Flumazenil 0.5 nM, HEK293 cells expressing human receptors, mean of two determinations; Table 1. An outline of the steps:
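Receptor source: human α5β3γ2 transiently transfected into HEK293 cells, membranes in pH 7.5 Krebs-tris. Filtration through GF/C, then scintillation counting.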

The target of experiment [2] is T1, h-GABA-A α5β3γ2. Kind of experiment: Two-electrode voltage clamp electrophysiology in Xenopus laevis oocytes expressing GABAA receptors, modulation of GABA EC20 current. Format: cell-based. The arrangement: host or cells: Xenopus laevis oocytes micro-injected with RNA transcripts of the subunits. The settings on record: Table 1; for Efficacy (GABA) %: % modulation of GABA EC20 = 100*(Fold increase-1); for Fold increase h-GABA-A α5β3γ2 oocyte: test compound at approx. 30 fold its Ki, GABA at EC20. An outline of the steps:
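Modulation is reported as % of the GABA EC20 current, calculated as 100*(Fold increase−1) from the peak ratio between a second GABA response carrying compound (applied at roughly 30-fold Ki) and a preceding control response. Oocytes expressing human α5β3γ2 were clamped at −80 mV at room temperature, 3–5 days after injection.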
On the technique in general: Two-electrode voltage clamp is typically applied to oocytes expressing channels or transporters.

Consider `CCc1cc(-c2cnn(Cc3c(-c4ccc(C)nc4)noc3C)c(=O)c2)ccn1` [Example 196, 5-(2-ethyl-4-pyridyl)-2-((5-methyl-3-(6-methyl-3-pyridyl)isoxazol-4-yl)methyl)pyridazin-3-one], for which affinity on h-GABA-A α5β3γ2 [1] was put at a Ki of 3.7 nM. Moreover, at h-GABA-A α5β3γ2 [2], the “Efficacy (GABA) %” value was 98% and the “Fold increase h-GABA-A α5β3γ2 oocyte” value was 1.98.

At h-GABA-A α5β3γ2 [1], `CO[C@H]1CN(c2cnn(Cc3c(-c4ccc(C)nc4)noc3C)c(=O)c2)[C@H]1C` [Example 197, 5-[(2S,3S)-3-methoxy-2-methyl-azetidin-1-yl]-2-[[5-methyl-3-(6-methyl-3-pyridyl)isoxazol-4-yl]methyl]pyridazin-3-one] came in with an inhibitory constant (Ki) of 2 nM. Also, at h-GABA-A α5β3γ2 [2], the “Efficacy (GABA) %” value amounted to 131% and the “Fold increase h-GABA-A α5β3γ2 oocyte” value is 2.31.

`CCO[C@H]1CN(c2cnn(Cc3c(-c4ccc(C)nc4)noc3C)c(=O)c2)[C@H]1C` [Example 198, 5-[(2S,3S)-3-ethoxy-2-methyl-azetidin-1-yl]-2-[[5-methyl-3-(6-methyl-3-pyridyl)isoxazol-4-yl]methyl]pyridazin-3-one] yielded an inhibition constant (Ki) on h-GABA-A α5β3γ2 [1] of 1.8 nM. At h-GABA-A α5β3γ2 [2], the “Efficacy (GABA) %” value was determined as 131% and the “Fold increase h-GABA-A α5β3γ2 oocyte” value is given as 2.31.

For the compound `Cc1ccc(-c2noc(C)c2Cn2ncc(N3CC4(CCOCC4)C3)cc2=O)cn1` [Example 199, 2-((5-methyl-3-(6-methylpyridin-3-yl)isoxazol-4-yl)methyl)-5-(7-oxa-2-azaspiro[3.5]nonan-2-yl)pyridazin-3(2H)-one], the affinity at h-GABA-A α5β3γ2 [1], expressed as Ki, was 19.4 nM. On h-GABA-A α5β3γ2 [2], the “Efficacy (GABA) %” value amounted to 117% and the “Fold increase h-GABA-A α5β3γ2 oocyte” value is listed as 2.17.

Regarding `Cc1ccc(-c2noc(C)c2Cn2ncc(N3CC4(C[C@@H](F)CO4)C3)cc2=O)cn1` [Example 200, 5-[(7R)-7-fluoro-5-oxa-2-azaspiro[3.4]octan-2-yl]-2-[[5-methyl-3-(6-methyl-3-pyridyl)isoxazol-4-yl]methyl]pyridazin-3-one], the inhibition constant Ki at h-GABA-A α5β3γ2 [1] is 18.6 nM. In addition, at h-GABA-A α5β3γ2 [2], the “Efficacy (GABA) %” value is recorded as 86% and the “Fold increase h-GABA-A α5β3γ2 oocyte” value came to 1.86.

Take `Cc1ccc(-c2noc(C)c2Cn2ncc(N3CC4(C[C@H](F)CO4)C3)cc2=O)cn1` [Example 201, 5-[(7S)-7-fluoro-5-oxa-2-azaspiro[3.4]octan-2-yl]-2-[[5-methyl-3-(6-methyl-3-pyridyl)isoxazol-4-yl]methyl]pyridazin-3-one]: the Ki on h-GABA-A α5β3γ2 [1] was 14.3 nM. For the same compound, on h-GABA-A α5β3γ2 [2], the “Efficacy (GABA) %” value amounted to 93% and the “Fold increase h-GABA-A α5β3γ2 oocyte” value was 1.93.

For the compound `CNc1cc(-c2cnn(Cc3c(-c4ccc(C)nc4)noc3C)c(=O)c2)ccn1` [Example 202, 2-((5-methyl-3-(6-methylpyridin-3-yl)isoxazol-4-yl)methyl)-5-(2-(methylamino)pyridin-4-yl)pyridazin-3(2H)-one], the inhibition constant (Ki) on h-GABA-A α5β3γ2 [1] is 4.2 nM. In addition, on h-GABA-A α5β3γ2 [2], the “Efficacy (GABA) %” value is given as 96% and the “Fold increase h-GABA-A α5β3γ2 oocyte” value is given as 1.96.

With `Cc1ccc(-c2noc(C)c2Cn2ncc(N3CC4(C[C@@H](OC(F)F)CO4)C3)cc2=O)cn1` [Example 203, 5-[(7R)-7-(difluoromethoxy)-5-oxa-2-azaspiro[3.4]octan-2-yl]-2-[[5-methyl-3-(6-methyl-3-pyridyl)isoxazol-4-yl]methyl]pyridazin-3-one], the inhibition constant (Ki) at h-GABA-A α5β3γ2 [1] amounted to 17.8 nM. For the same compound, on h-GABA-A α5β3γ2 [2], the “Efficacy (GABA) %” value is reported as 121% and the “Fold increase h-GABA-A α5β3γ2 oocyte” value came out at 2.21.

Regarding `Cc1ccc(-c2noc(C)c2Cn2ncc(N3CC4(C[C@H](OC(F)F)CO4)C3)cc2=O)cn1` [Example 204, 5-[(7S)-7-(difluoromethoxy)-5-oxa-2-azaspiro[3.4]octan-2-yl]-2-[[5-methyl-3-(6-methyl-3-pyridyl)isoxazol-4-yl]methyl]pyridazin-3-one], the Ki on h-GABA-A α5β3γ2 [1] was 15.1 nM. On h-GABA-A α5β3γ2 [2], the “Efficacy (GABA) %” value is on record as 160% and the “Fold increase h-GABA-A α5β3γ2 oocyte” value amounted to 2.6.

On to `Cc1ncc(-c2noc(C)c2Cn2ncc(N3C[C@@H](C)O[C@@H](C)C3)cc2=O)cc1F` [Example 205, 5-((2R,6S)-2,6-dimethylmorpholino)-2-((3-(5-fluoro-6-methylpyridin-3-yl)-5-methylisoxazol-4-yl)methyl)pyridazin-3(2H)-one], for which the Ki on h-GABA-A α5β3γ2 [1] was determined as 2 nM. Further, at h-GABA-A α5β3γ2 [2], the “Efficacy (GABA) %” value was 253% and the “Fold increase h-GABA-A α5β3γ2 oocyte” value is reported as 3.53.

Turning to `Cc1ccc(-c2noc(C)c2Cn2ncc(N3CC(OCC(F)F)C3)cc2=O)cn1` [Example 206, 5-[3-(2,2-difluoroethoxy)azetidin-1-yl]-2-[[5-methyl-3-(6-methyl-3-pyridyl)isoxazol-4-yl]methyl]pyridazin-3-one], the affinity on h-GABA-A α5β3γ2 [1], expressed as Ki, was 13.7 nM. Also, at h-GABA-A α5β3γ2 [2], the “Efficacy (GABA) %” value came to 144% and the “Fold increase h-GABA-A α5β3γ2 oocyte” value was 2.44.

Compound `COc1cc(-c2cnn(Cc3c(-c4cnc(C)c(F)c4)noc3C)c(=O)c2)ccn1` [Example 207, 2-((3-(5-fluoro-6-methylpyridin-3-yl)-5-methylisoxazol-4-yl)methyl)-5-(2-methoxypyridin-4-yl)pyridazin-3(2H)-one] returned a Ki at h-GABA-A α5β3γ2 [1] of 14.8 nM. For the same compound, at h-GABA-A α5β3γ2 [2], the “Efficacy (GABA) %” value was determined as 75% and the “Fold increase h-GABA-A α5β3γ2 oocyte” value worked out at 1.75.

The compound `Cc1ncc(-c2noc(C)c2Cn2ncc(N3CC4(CCCO4)C3)cc2=O)cc1F` [Example 208, 2-((3-(5-fluoro-6-methylpyridin-3-yl)-5-methylisoxazol-4-yl)methyl)-5-(5-oxa-2-azaspiro[3.4]octan-2-yl)pyridazin-3(2H)-one] showed a Ki on h-GABA-A α5β3γ2 [1] of 61.2 nM. On h-GABA-A α5β3γ2 [2], the “Efficacy (GABA) %” value was found to be 110% and the “Fold increase h-GABA-A α5β3γ2 oocyte” value is 2.1.

Consider `Cc1onc(-c2ccc(Cl)nc2)c1Cn1ncc(N2CC3(CCCO3)C2)cc1=O` [Example 209, 2-((3-(6-chloropyridin-3-yl)-5-methylisoxazol-4-yl)methyl)-5-(5-oxa-2-azaspiro[3.4]octan-2-yl)pyridazin-3(2H)-one], for which the Ki on h-GABA-A α5β3γ2 [1] is 52.7 nM. On h-GABA-A α5β3γ2 [2], the “Efficacy (GABA) %” value was 94% and the “Fold increase h-GABA-A α5β3γ2 oocyte” value worked out at 1.94.

On to `CCCn1cc(-c2cnn(Cc3c(-c4ccc(C)nc4)noc3C)c(=O)c2)cn1` [Example 210, 2-((5-methyl-3-(6-methyl-3-pyridyl)isoxazol-4-yl)methyl)-5-(1-propylpyrazol-4-yl)pyridazin-3-one], for which the Ki on h-GABA-A α5β3γ2 [1] turned out to be 26 nM. Moreover, at h-GABA-A α5β3γ2 [2], the “Efficacy (GABA) %” value is given as 143% and the “Fold increase h-GABA-A α5β3γ2 oocyte” value is on record as 2.43.

As for `Cc1ccc(-c2noc(C)c2Cn2ncc(-c3cccc(C#N)n3)cc2=O)cn1` [Example 211, 6-(1-((5-methyl-3-(6-methyl-3-pyridyl)isoxazol-4-yl)methyl)-6-oxo-pyridazin-4-yl)pyridine-2-carbonitrile], affinity on h-GABA-A α5β3γ2 [1] was put at a Ki of 40.9 nM. Moreover, on h-GABA-A α5β3γ2 [2], the “Efficacy (GABA) %” value was 324% and the “Fold increase h-GABA-A α5β3γ2 oocyte” value came out at 4.24.

Regarding `COC1CN(c2cnn(Cc3c(-c4ccc(Cl)nc4)noc3C)c(=O)c2)C1` [Example 212, 2-((3-(6-chloropyridin-3-yl)-5-methylisoxazol-4-yl)methyl)-5-(3-methoxyazetidin-1-yl)pyridazin-3(2H)-one], the Ki on h-GABA-A α5β3γ2 [1] stood at 41.6 nM. Moreover, on h-GABA-A α5β3γ2 [2], the “Efficacy (GABA) %” value came out at 118% and the “Fold increase h-GABA-A α5β3γ2 oocyte” value stood at 2.18.

`CCOC1CN(c2cnn(Cc3c(-c4cnc(C)c(F)c4)noc3C)c(=O)c2)C1` [Example 213, 5-(3-ethoxyazetidin-1-yl)-2-((3-(5-fluoro-6-methylpyridin-3-yl)-5-methylisoxazol-4-yl)methyl)pyridazin-3(2H)-one]: affinity on h-GABA-A α5β3γ2 [1] was put at a Ki of 32.8 nM. In addition, at h-GABA-A α5β3γ2 [2], the “Efficacy (GABA) %” value was 108% and the “Fold increase h-GABA-A α5β3γ2 oocyte” value is on record as 2.08.

Regarding `COc1cc(-c2cnn(Cc3c(-c4ccc(Cl)nc4)noc3C)c(=O)c2)ccn1` [Example 214, 2-((3-(6-chloropyridin-3-yl)-5-methylisoxazol-4-yl)methyl)-5-(2-methoxypyridin-4-yl)pyridazin-3(2H)-one], the affinity at h-GABA-A α5β3γ2 [1] corresponds to a Ki of 8.3 nM. Besides, at h-GABA-A α5β3γ2 [2], the “Efficacy (GABA) %” value was 74% and the “Fold increase h-GABA-A α5β3γ2 oocyte” value came to 1.74.

On h-GABA-A α5β3γ2 [1], `Cc1onc(-c2ccc(Cl)nc2)c1Cn1ncc(-c2cnn(C)c2)cc1=O` [Example 215, 2-((3-(6-chloropyridin-3-yl)-5-methylisoxazol-4-yl)methyl)-5-(1-methyl-1H-pyrazol-4-yl)pyridazin-3(2H)-one] registered a Ki of 50 nM. Further, on h-GABA-A α5β3γ2 [2], the “Efficacy (GABA) %” value is given as 119% and the “Fold increase h-GABA-A α5β3γ2 oocyte” value was determined as 2.19.

Turning to `Cc1ccc(-c2noc(C)c2Cn2ncc(N3CC4(CCCCO4)C3)cc2=O)cn1` [Example 216, 2-((5-methyl-3-(6-methylpyridin-3-yl)isoxazol-4-yl)methyl)-5-(5-oxa-2-azaspiro[3.5]nonan-2-yl)pyridazin-3(2H)-one], the affinity on h-GABA-A α5β3γ2 [1] corresponds to a Ki of 15.8 nM. Besides, at h-GABA-A α5β3γ2 [2], the “Efficacy (GABA) %” value is 103% and the “Fold increase h-GABA-A α5β3γ2 oocyte” value is 2.03.

`Cc1onc(-c2ccc(Cl)nc2)c1Cn1ncc(N2CC3(C2)CC(F)(F)CO3)cc1=O` [Example 217, 2-((3-(6-chloropyridin-3-yl)-5-methylisoxazol-4-yl)methyl)-5-(7,7-difluoro-5-oxa-2-azaspiro[3.4]octan-2-yl)pyridazin-3(2H)-one]: the Ki at h-GABA-A α5β3γ2 [1] stood at 12.3 nM. For the same compound, on h-GABA-A α5β3γ2 [2], the “Efficacy (GABA) %” value is recorded as 85% and the “Fold increase h-GABA-A α5β3γ2 oocyte” value is given as 1.85.
